Molecular target: T1, ACVR1 (ALK2) R206H (Homo sapiens, UniProt Q04771, R206H)
T1 construct: purchased Thermo Fisher Scientific (Life Technologies) SelectScreen
Assay: SelectScreen LanthaScreen
Format: binding
Settings: read-out: % displacement
Outline: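 NU5455 was profiled across the SelectScreen Broad panel of kinase activity and binding assays. Z'LYTE reactions such as CSF1R ran at apparent Km ATP, while the Adapta CAMK1 assay used ATP listed as 10. Values are given as percent.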

T1 sequence (Q04771 21-509 R206H): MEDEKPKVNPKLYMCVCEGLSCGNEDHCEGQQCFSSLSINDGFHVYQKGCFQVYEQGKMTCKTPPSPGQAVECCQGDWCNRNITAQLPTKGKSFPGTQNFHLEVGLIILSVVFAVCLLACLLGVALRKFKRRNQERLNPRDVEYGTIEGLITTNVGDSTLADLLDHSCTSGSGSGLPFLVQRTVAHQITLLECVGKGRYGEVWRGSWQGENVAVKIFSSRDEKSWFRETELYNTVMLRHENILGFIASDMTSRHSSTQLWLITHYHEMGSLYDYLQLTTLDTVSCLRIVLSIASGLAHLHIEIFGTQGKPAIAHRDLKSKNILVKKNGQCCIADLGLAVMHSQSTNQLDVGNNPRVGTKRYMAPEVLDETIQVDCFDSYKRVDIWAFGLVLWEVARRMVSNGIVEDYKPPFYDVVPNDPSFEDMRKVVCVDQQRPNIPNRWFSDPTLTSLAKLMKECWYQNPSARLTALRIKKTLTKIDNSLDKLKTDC

## CN(C(=O)CN1CCOCC1)c1ccc2sc3c(-c4cccc5c(=O)cc(N6CC7CCC(C6)O7)oc45)cccc3c2c1 [NU5455]
  inhibition at 1 µM: 12.6%

From paper PMC6934184, “Selective DNA-PKcs inhibition extends the therapeutic index of localized radiotherapy and chemotherapy” (The Journal of Clinical Investigation, 2019)
